We go through 6 compounds from ChEMBL document CHEMBL1142560, “Furocoumarin glycosides from the leaves of Ficus ruficaulis Merr. var. antaoensis” (J Nat Prod, 2005).

The subject of the first data set is PBMC. As to the kind of experiment: Antiproliferative activity against human PBMC. The class given is cell-based.
Compound `O=c1ccc2c(O[C@@H]3O[C@H](CO)[C@@H](O)[C@H](O)[C@H]3O)c(O)c3occc3c2o1` had an IC50 of 33.4 µM.
As to `C/C=C/C[C@@H](C)[C@@H](O)[C@H]1C(=O)N[C@@H](CC)C(=O)N(C)CC(=O)N(C)[C@@H](CC(C)C)C(=O)N[C@@H](C(C)C)C(=O)N(C)[C@@H](CC(C)C)C(=O)N[C@@H](C)C(=O)N[C@H](C)C(=O)N(C)[C@@H](CC(C)C)C(=O)N(C)[C@@H](CC(C)C)C(=O)N(C)[C@@H](C(C)C)C(=O)N1C` [CYCLOSPORINE], the IC50 turned out to be 0.012 µM.

Another data set has as its system PBMC. In words: Antiproliferative activity against human PBMC upto 100 uM. The data set is classed as cell-based.
`O=c1ccc2c(O[C@@H]3O[C@H](CO)[C@@H](O)[C@H](O)[C@H]3O)c(O[C@@H]3O[C@H](CO)[C@@H](O)[C@H](O)[C@H]3O)c3occc3c2o1`: the Activity result was “Not Active”.
On to `O=c1ccc2c(O)c3ccoc3c(O[C@@H]3O[C@H](CO)[C@@H](O)[C@H](O)[C@H]3O)c2o1`, for which the Activity entry is “Not Active”.
Same read-out and setting: as for `O=c1ccc2c(O[C@@H]3O[C@H](CO)[C@@H](O)[C@H](O)[C@H]3O)c3ccoc3c(O)c2o1`, the entry is “Not Active”; as for `O=c1ccc2c(O)c(O[C@@H]3O[C@H](CO)[C@@H](O)[C@H](O)[C@H]3O)c3occc3c2o1`, “Not Active”.

One may read the IC50 as the concentration that inhibits the measured activity by half. Read a high IC50 as lower potency.
